These results are taken from publication PMC9804084, “Multiple drug transporters contribute to the brain transfer of levofloxacin” (CNS Neuroscience & Therapeutics, 2022).

This data set can be described thus: Stability of LVFX in QC samples (dialysate solvents) under storage conditions. To be noted: for Calculated concentration (mean ± SD): n=3. Type of data set: physicochemical. The procedure: Using artificial cerebrospinal fluid (ACSF) and Ringer's solution as solvents, the LVFX concentration required for calibration and quality control (QC) samples was obtained by appropriate step‐by‐step dilution. A calibration curve was constructed using the relationship between the analyte peak area and analyte concentration obtained in the range of 0.01–30 μg/ml. Linearity was assessed by a weighted (1/x ^2) least squares regression analysis. The accuracy and precision of the method were evaluated by QC samples of high, medium, and low concentrations. Quantification of the concentration of QC samples was conducted three times on the same day to evaluate the intra‐day precision and accuracy. The same procedure was employed for 3 consecutive days to evaluate the inter‐day precision and accuracy of this method. The relative error (RE%) and relative standard deviation (RSD%) were used to evaluate the accuracy and precision, respectively. We evaluated the stability of LVFX in dialysates under short‐term (6 h) room temperature, low temperature (4°C), and freeze–thaw conditions (three cycles).

In the case of `C[C@H]1COc2c(N3CCN(C)CC3)c(F)cc3c(=O)c(C(=O)O)cn1c23` [LVFX, Levofloxacin], the “stability under storage conditions employed” value (QC samples, room temp 6 h, 4°C, freeze–thaw 3 cycles) was “stable”. For the same compound, for the setting “all storage conditions (Table 2)”, the “maximum deviation in stability test of QC samples” value was 4.71%. In addition, the “Calculated concentration (mean ± SD)” value (freeze–thaw (3 cycles), nominal concentration 0.3 μg/ml) is 0.289 ± 0.008 µg/mL; the “Calculated concentration (mean ± SD)” value (freeze–thaw (3 cycles), nominal concentration 3 μg/ml) is 2.960 ± 0.140 µg/mL; the “Calculated concentration (mean ± SD)” value (freeze–thaw (3 cycles), nominal concentration 30 μg/ml) was 29.959 ± 0.417 µg/mL; the “Calculated concentration (mean ± SD)” value (low temperature (4°C) 12 h, nominal concentration 0.3 μg/ml) was 0.294 ± 0.012 µg/mL; the “Calculated concentration (mean ± SD)” value (low temperature (4°C) 12 h, nominal concentration 3 μg/ml) is 3.055 ± 0.105 µg/mL; the “Calculated concentration (mean ± SD)” value (low temperature (4°C) 12 h, nominal concentration 30 μg/ml) is 29.844 ± 0.102 µg/mL. In addition, the “Calculated concentration (mean ± SD)” value was 0.293 ± 0.011 µg/mL (short term (room temp) 6 h, nominal concentration 0.3 μg/ml); 3.098 ± 0.056 µg/mL (short term (room temp) 6 h, nominal concentration 3 μg/ml); 30.608 ± 0.405 µg/mL (short term (room temp) 6 h, nominal concentration 30 μg/ml).
